# Key:
# [1] = molecular target: T1, PP1α (PP1CA) (Oryctolagus cuniculus, UniProt P62139); assay: Protein phosphatase test (PP1 activity, DiFMUP fluorescent substrate); type: biochemical; details: PP1CA at 80 mU, fluorescent substrate (50 μM), molecules from 50 μM to 50 nM; read-out: PP1 Inhibition IC50
# T1 construct: purchased New England Biolabs P0754
# Procedure, shortened: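 PP1α (30 or 80 mU) in 100 mM Tris-HCl pH 7.5, 4 mM DTT, 0.2 mM EDTA, 0.5 mM MnCl2 was preincubated 15 min with compound (50 μM to 50 nM), then given 60 μM DiFMUP for 20 min at 37 °C. Phosphatase activity was read as fluorescence at 355-460 nm, three times in duplicate.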
# [2] = system: bovine brain tubulin; assay: In vitro tubulin polymerization test (turbidimetry at 350 nm); type: biochemical; details: molecules at 50 μM, calculated at t=3000 s, DMSO control = 100%
# Procedure, shortened: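 Bovine brain tubulin was assembled at 37 °C in BRB80 (80 mM K-PIPES pH 6.8, 1 mM MgCl2, 1 mM EGTA) with 1 mM GTP. The 50 μM tests used compounds at 50 μM, run in triplicate. Turbidity at 350 nm was read at t=3000 s and expressed relative to control taken as 100%.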
# [3] = system: HeLa cells; assay: Indirect immunofluorescence: effect on HeLa cells (mitotic arrest, microtubule depolymerization); type: cell-based, human; design: key to Effect on Hela at 25 μM / Effect on Hela at 100 μM / Effect on Hela at 50 and 100 μM / Effect on Hela at 50 μM: —: −: no activity on the cells at 25 μM (if there is an effect at high concentrations, this is specified in the table).; *: weak activity (MA and/or slight depolymerization of the MTs and/or slight inhibition of proliferation),; **: average activity (MA and/or moderate depolymerization of the MTs and/or moderate inhibition of proliferation),; ***: strong activity (MA and/or pronounced depolymerization of the MTs and/or pronounced inhibition of proliferation),; ****: very strong activity (MA and/or very pronounced depolymerization of the MTs and/or strong inhibition of proliferation); details: 24 hours; for Effect on Hela at 25 μM: mitotic index and/or depolymerization of the MTs
# Procedure, shortened: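 HeLa cells exposed 24 h to compound (100 μM to 50 nM; primary series 1–10 μM), DMSO controls. PFA/glutaraldehyde-fixed cells immunostained for α-tubulin, actin (phalloidin) and DNA (Hoechst); fluorescence microscopy scored phenotypes and mitotic index, with mitotic index and/or MT depolymerization evaluated at 25 μM.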
# [4] = system: HMEC cells; assay: Proliferation of HMEC cells (GI50); type: cell-based; details: Homo sapiens, 120 h, 50 μM to 1 nM for 5 days
# Procedure, shortened: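 Cells seeded at 1,000/well (10% confluence) and exposed 5 days (120 h) to compound from 1 nM up to 50–100 μM. Live cells counted by Hoechst 33342 staining under fluorescence microscopy; GI50 is concentration halving proliferation versus control, mean of two triplicate experiments.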
# T1 sequence (P62139 whole entry): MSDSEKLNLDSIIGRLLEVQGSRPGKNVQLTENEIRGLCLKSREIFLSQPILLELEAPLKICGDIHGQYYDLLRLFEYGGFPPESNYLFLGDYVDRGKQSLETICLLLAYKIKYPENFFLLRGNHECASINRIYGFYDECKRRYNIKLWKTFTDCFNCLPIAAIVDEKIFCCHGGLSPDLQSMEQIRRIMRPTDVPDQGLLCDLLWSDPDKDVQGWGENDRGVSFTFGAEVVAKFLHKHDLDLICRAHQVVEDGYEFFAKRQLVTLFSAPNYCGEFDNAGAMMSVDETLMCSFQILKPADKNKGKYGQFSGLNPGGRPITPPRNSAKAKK
SMILES,IC50 [1],melting point,Tubulin polymerization inhibition [2],Effect on Hela at 25 μM [3],GI50 [4],Effect on Hela at 50 and 100 μM ([3]; 50 and 100 μM)
"COc1ccc(-c2[nH]c(=O)c3cc(OC)ccc3c2C=O)cc1 [Compound 25, 7-Methoxy-3-(4-methoxyphenyl)isoquinoline-1(2H)-one-4-carbaldehyde]",≥ 50 µM,232 °C,+++ ((+++) signifies that the molecule induces tubulin assembly inhibition in vitro of more than 50% with respect to the DMSO control.),****,0.1 to 1 µM,
"COc1ccc(-c2nc(Cl)c3cc(OC)ccc3c2Br)cc1 [Compound 26, 4-Bromo-1-chloro-7-methoxy-3-(4-methoxyphenyl)isoquinoline]",> 50 µM,164 to 166 °C,— ((−) signifies that the molecule induces little or no tubulin assembly inhibition in vitro: 0+ or − −5% of the DMSO control.),—,> 50 µM,
"COc1ccc(-c2nc(OC)c3cc(OC)ccc3c2Br)cc1 [Compound 27, 4-Bromo-1,7-Dimethoxy-3-(4-methoxyphenyl)isoquinoline]",> 50 µM,138 to 140 °C,+ ((+) signifies that the molecule induces tubulin assembly inhibition in vitro comprised between 6 and 25% of the DMSO control.),—,25 to 50 µM,
"C#CCn1c(-c2ccc(OC)cc2)c([N+](=O)[O-])c2ccc(OC)cc2c1=O [Compound 28, 7-Methoxy-3-(4-methoxyphenyl)-4-nitro-2-(propargyl)isoquinolin-1(2H)-one]",25 to 50 µM,162 to 164 °C,— ((−) signifies that the molecule induces little or no tubulin assembly inhibition in vitro: 0+ or − −5% of the DMSO control.),—,> 50 µM,**
"C#CCOc1nc(-c2ccc(OC)cc2)c([N+](=O)[O-])c2ccc(OC)cc12 [Compound 29, 7-Methoxy-3-(4-methoxyphenyl)-4-nitro-1-(prop-2ynyloxy)isoquinoline]",≥ 50 µM,177 to 179 °C,+ ((+) signifies that the molecule induces tubulin assembly inhibition in vitro comprised between 6 and 25% of the DMSO control.),—,> 50 µM,
"COc1ccc(-c2c([N+](=O)[O-])c3ccc(OC)cc3c(=O)n2CC#N)cc1 [Compound 30, 2-(7-Methoxy-3-(4-methoxyphenyl)-4-nitro-1-oxoisoquinolin-2(1H)-yl)ethanenitrile]",≥ 50 µM,194 to 196 °C,+ ((+) signifies that the molecule induces tubulin assembly inhibition in vitro comprised between 6 and 25% of the DMSO control.),—,> 50 µM,
"COc1ccc(-c2nc(OCC#N)c3cc(OC)ccc3c2[N+](=O)[O-])cc1 [Compound 31, 2-(7-Methoxy-3-(4-methoxyphenyl)-4-nitroisoquinolin-1-yloxy)ethanenitrile]",> 50 µM,192 to 194 °C,++ ((++) signifies that the molecule induces tubulin assembly inhibition in vitro comprised between 26 and 50% of the DMSO control.),—,> 50 µM,
"COc1ccc2cc(-c3ccc(Br)cc3)[nH]c(=O)c2c1 [Compound 32, 3-(4-Bromophenyl)-7-methoxyisoquinolin-1(2H)-one]",10 to 24 µM,> 250 °C,— ((−) signifies that the molecule induces little or no tubulin assembly inhibition in vitro: 0+ or − −5% of the DMSO control.),****,0.1 to 1 µM,
"COc1ccc2cc(-c3ccc(C#C[Si](C)(C)C)cc3)[nH]c(=O)c2c1 [Compound 33, 7-Methoxy-3-(4-((trimethylsilyl)ethynyl)phenyl)isoquinolin-1(2H)-one]",> 50 µM,133 to 135 °C,— ((−) signifies that the molecule induces little or no tubulin assembly inhibition in vitro: 0+ or − −5% of the DMSO control.),—,25 to 50 µM,
"COc1ccc2c([N+](=O)[O-])c(-c3ccc(Br)cc3)[nH]c(=O)c2c1 [Compound 34, 3-(4-Bromophenyl)-7-methoxy-4-nitroisoquinolin-1(2H)-one]",25 to 50 µM,222 to 224 °C,+++ ((+++) signifies that the molecule induces tubulin assembly inhibition in vitro of more than 50% with respect to the DMSO control.),***,≤ 0.1 µM,
"COc1ccc2c([N+](=O)[O-])c(-c3ccc(C#C[Si](C)(C)C)cc3)[nH]c(=O)c2c1 [Compound 35, 7-Methoxy-4-nitro-3-(4-((trimethylsilyl)ethynyl)phenyl)isoquinolin-1(2H)-one]",10 to 24 µM,178 to 180 °C,— ((−) signifies that the molecule induces little or no tubulin assembly inhibition in vitro: 0+ or − −5% of the DMSO control.),***,≤ 0.1 µM,
"C#Cc1ccc(-c2[nH]c(=O)c3cc(OC)ccc3c2[N+](=O)[O-])cc1 [Compound 36, 3-(4-Ethynylphenyl)-7-methoxy-4-nitroisoquinolin-1(2H)-one]",10 to 24 µM,246 to 248 °C,+++ ((+++) signifies that the molecule induces tubulin assembly inhibition in vitro of more than 50% with respect to the DMSO control.),****,≤ 0.1 µM,

# Now from value to molecule, other results behind:
IC50 [1],melting point,SMILES,Tubulin polymerization inhibition [2],Effect on Hela at 25 μM [3],GI50 [4],Effect on Hela at 50 and 100 μM ([3]; 50 and 100 μM)
> 50 µM,209 to 210 °C,"C#Cc1c(-c2ccc(OC)cc2)nc(OC)c2cc(OC)ccc12 [Compound 38, 4-Ethynyl-1,7-dimethoxy-3-(4-methoxyphenyl)isoquinoline]",+ ((+) signifies that the molecule induces tubulin assembly inhibition in vitro comprised between 6 and 25% of the DMSO control.),—,> 50 µM,
10 to 24 µM,238 °C,"COc1ccc(-c2[nH]c(=O)c3cc(OC)ccc3c2-n2cccc2)cc1 [Compound 39, 4-(Pyrrol-1-yl)-7-methoxy-3-(4-methoxyphenyl)isoquinoline-1(2H)-one]",+ ((+) signifies that the molecule induces tubulin assembly inhibition in vitro comprised between 6 and 25% of the DMSO control.),—,0.1 to 1 µM,
> 50 µM,206 °C,"COc1ccc(-c2[nH]c(=O)c3cc(OC)ccc3c2N2CCCCC2)cc1 [Compound 40, 4-(Piperidin-1-yl)-7-methoxy-3-(4-methoxyphenyl)isoquinoline-1(2H)-one]",+++ ((+++) signifies that the molecule induces tubulin assembly inhibition in vitro of more than 50% with respect to the DMSO control.),—,0.1 to 1 µM,
10 to 24 µM,> 260 °C,"COc1ccc2cc(-c3ccc(OCc4ccccc4)cc3)[nH]c(=O)c2c1 [Compound 44, 3-(4-(Benzyloxy)phenyl)-7-methoxyisoquinolin-1(2H)-one]",— ((−) signifies that the molecule induces little or no tubulin assembly inhibition in vitro: 0+ or − −5% of the DMSO control.),—,25 to 50 µM,
> 50 µM,255 °C,"COc1ccc2cc(-c3ccc(O)cc3)[nH]c(=O)c2c1 [Compound 45, 3-(4-Hydroxyphenyl)-7-methoxyisoquinolin-1(2H)-one]",++ ((++) signifies that the molecule induces tubulin assembly inhibition in vitro comprised between 26 and 50% of the DMSO control.),****,0.1 to 1 µM,
10 to 24 µM,252 to 254 °C,"COc1ccc2c([N+](=O)[O-])c(-c3ccc(OCc4ccccc4)cc3)[nH]c(=O)c2c1 [Compound 46, 3-(4-(Benzyloxy)phenyl)-7-methoxy-4-nitroisoquinolin-1(2H)-one]",+ ((+) signifies that the molecule induces tubulin assembly inhibition in vitro comprised between 6 and 25% of the DMSO control.),—,> 50 µM,

# From patent publication US8883763B2 (Universite Joseph Fourier, priority 2010, dated 2014)
